According to publication PMC6270026, “Antibacterial and Herbicidal Activity of Ring-Substituted 2-Hydroxynaphthalene-1-carboxanilides” (Molecules, 2013):
In brackets after ≈: the same amount, converted by molar mass. Like-named read-outs stand apart in the source and are kept apart here.

What was measured:
[1] = Lipophilicity determination by RP-HPLC (capacity factor log k); format: physicochemical; settings: isocratic, MeOH 60%/H2O 40%, C18
Protocol: A HPLC system Agilent 1200 equipped with DAD detector (Agilent, Santa Clara, CA, USA) was used. A chromatographic column Symmetry® C18 5 μm, 4.6 × 250 mm, Part No. WAT054275, (Waters Corp., Milford, MA, USA) was used. The HPLC separation process was monitored and evaluated by EZChrom Elite software ver. 3.3.2 (Agilent). Isocratic elution by a mixture of MeOH p.a. (60%) and H2O-HPLC Mili-Q grade (40%) as a mobile phase was used. The total flow of the column was 1.0 mL/min, injection 20 μL, column temperature 40 °C and sample temperature 10 °C. The detection wavelength 210 nm was chosen. The KI methanolic solution was used for the dead time (tD) determination. Retention times (tR) were measured in minutes. The capacity factors k were calculated according to formula k = (tR − tD)/tD, where tR is the retention time of the solute, whereas tD denotes the dead time obtained using an unretained analyte. Log k, calculated from the capacity factor k, is used as the lipophilicity index converted to log P scale.

[2] = system: photosynthetic electron transport (PET) in spinach chloroplasts; assay: Inhibition of photosynthetic electron transport (PET) in spinach chloroplasts; format: biochemical, Spinacia oleracea L.; settings: DCPIP photoreduction
Protocol: Chloroplasts were prepared from spinach (Spinacia oleracea L.) according to Masarovicova and Kralova. The inhibition of photosynthetic electron transport (PET) in spinach chloroplasts was determined spectrophotometrically (Genesys 6, Thermo Electron Scientific Instruments, Madison, WI, USA), using an artificial electron acceptor 2,6-dichlorophenol-indophenol (DCPIP) according to Kralova et al., and the rate of photosynthetic electron transport was monitored as a photoreduction of DCPIP. The measurements were carried out in phosphate buffer (0.02 mol/L, pH 7.2) containing sucrose (0.4 mol/L), MgCl2 (0.005 mol/L) and NaCl (0.015 mol/L). The chlorophyll content was 30 mg/L in these experiments and the samples were irradiated (~100 W/m^2 with 10 cm distance) with a halogen lamp (250 W) using a 4 cm water filter to prevent warming of the samples (suspension temperature 22 °C). The studied compounds were dissolved in DMSO due to their limited water solubility. […] The inhibitory efficiency of the studied compounds was expressed by IC50 values, i.e., by molar concentration of the compounds causing 50% decrease in the oxygen evolution rate relative to the untreated control.

[3] = system: Staphylococcus aureus ATCC 29213; assay: In vitro antibacterial susceptibility testing (broth dilution MIC); format: cell-based; settings: ATCC29213; Staphylococcus aureus ATCC 29213, 24 h, 37 °C
Protocol: (§1) The synthesized compounds were evaluated for in vitro antibacterial activity against representatives of multidrug-resistant bacteria, clinical isolates of methicillin-resistant Staphylococcus aureus (MRSA) 63718, SA 630 and SA 3202 that were obtained from the National Institute of Public Health, Prague, Czech Republic. Staphylococcus aureus ATCC 29213 was used as a reference and quality control strain. Ampicillin (Sigma-Aldrich) was used as the standard. Prior to testing, each strain was passaged onto nutrient agar (Oxoid, Hampshire, UK) with 5% of bovine blood, and bacterial inocula were prepared by suspending a small portion of bacterial colony in sterile phosphate buffered saline (pH 7.2–7.3). The cell density was adjusted to 0.5 McFarland units using a densitometer (Densi-La-Meter, LIAP, Riga, Latvia). The final inoculum was made by 1:20 dilution of the suspension with the Mueller-Hinton broth (MH broth). […] The final concentrations of the evaluated compounds ranging from 256 μg/mL to 0.008 μg/mL. The broth dilution micro-method modified according to NCCLS guidelines in MH broth was used to determine the minimum inhibitory concentration (MIC). Drug-free controls, sterility controls and controls consisted of MH broth and DMSO alone were included. The determination of results was performed visually after 24 h of static incubation in the darkness at 37 °C in an aerobic atmosphere. The MICs were defined as the lowest concentration of the compound at which no visible bacterial growth was observed.

[4] = system: methicillin-resistant Staphylococcus aureus (MRSA) 63718; assay: as above; format: cell-based; settings: clinical isolate MRSA 63718, 24 h, 37 °C
Protocol: as §1

[5] = system: methicillin-resistant Staphylococcus aureus SA 3202; assay: as above; format: cell-based; settings: MRSA, read-out: MIC MRSA 3202
Protocol: as §1

[6] = system: methicillin-resistant Staphylococcus aureus SA 630; assay: as above; format: cell-based; settings: MRSA, clinical isolate SA 630, 24 h, 37 °C
Protocol: as §1

[7] = system: Mycobacterium marinum CAMP 5644; assay: In vitro antimycobacterial evaluation (broth dilution MIC); format: cell-based; settings: Mycobacterium marinum, CAMP5644, 504 h, M. marinum CAMP 5644, 21 days, 28 °C
M. kansasii DSM 44162 = assay: as above; format: cell-based; settings: Mycobacterium kansasii, DSM44162, 168 h; M. kansasii DSM 44162, 7 days, 37 °C
M. smegmatis ATCC 700084 = assay: as above; format: cell-based, Mycobacterium smegmatis; settings: Mycolicibacterium smegmatis, ATCC700084, 72 h; M. smegmatis ATCC 700084, 3 days, 37 °C
[8] = system: human monocytic leukemia THP-1 cells; assay: In vitro cytotoxicity assay (LDH); format: cell-based; settings: treatment with 20 µmol/L, 24 h
Protocol: Human monocytic leukemia THP-1 cells were obtained from the European Collection of Cell Cultures (ECACC, Salisbury, UK; Methods of characterization: DNA Fingerprinting (Multilocus probes) and isoenzyme analysis). These cells were routinely cultured in RPMI 1640 (Lonza, Verviers, Belgium) medium supplemented with 10% fetal bovine serum (FBS, Sigma-Aldrich), 2% L-glutamine, 1% penicillin and streptomycin (Lonza, Verviers, Belgium) at 37 °C with 5% CO2. Cells were passaged at approximately 1 week intervals. Cells were routinely tested for the absence of mycoplasma (Hoechst 33258 staining method). The tested compounds were dissolved in DMSO (Sigma-Aldrich) and added in five increasing concentrations to the cell suspension in the culture medium. The maximum concentration of DMSO in the assays never exceeded 0.1%. Subsequently, the cells were incubated for 24 h at 37 °C with 5% CO2 to various compound concentrations ranging from 0.37 to 20 μmol/L in RPMI 1640 medium. Cell toxicity was determined using a Cytotoxicity Detection Kit^PLUS Lactate dehydrogenase (LDH) assay kit (Roche Diagnostics, Mannheim, Germany) according to the manufacturer’s instructions, as described previously. […] All data were evaluated using GraphPad Prism 5.00 software (GraphPad Software, San Diego, CA, USA).

[9] = clinical isolate SA 3202, 24 h, 37 °C

SMILES: O=C(Nc1ccccc1Cl)c1c(O)ccc2ccccc12 [Compound 5a, N-(2-chlorophenyl)-2-hydroxynaphthalene-1-carboxamide]
- log k [1]: 0.8984
- IC50 [2]: 49.6 µM
- MIC [3]: 215 µM (≈ 64 µg/mL)
- MIC [4]: 860 µM (≈ 256 µg/mL)
- MIC ([5]; 24 h): > 860 µM
- MIC [6]: > 860 µM
- MIC [7]: 107 µM (≈ 31.9 µg/mL)
- MIC (M. kansasii DSM 44162): 107 µM (≈ 31.9 µg/mL)
- MIC (M. smegmatis ATCC 700084): 107 µM (≈ 31.9 µg/mL)
- lethal effect on THP-1 cells [8]: did not lead to significant lethal effects

SMILES: O=C(Nc1ccccc1C(F)(F)F)c1c(O)ccc2ccccc12 [Compound 7a, 2-Hydroxy-N-(2-trifluoromethylphenyl)naphthalene-1-carboxamide]
- log k [1]: 0.8353
- IC50 [2]: 153 µM
- MIC [3]: 97.1 µM (≈ 32.2 µg/mL)
- MIC [4]: 193 µM (≈ 63.9 µg/mL)
- MIC [5, 9]: 193 µM (≈ 63.9 µg/mL)
- MIC [6]: 97.1 µM (≈ 32.2 µg/mL)
- MIC [7]: 96.6 µM (≈ 32 µg/mL)
- MIC (M. kansasii DSM 44162): 96.6 µM (≈ 32 µg/mL)
- MIC (M. smegmatis ATCC 700084): 386 µM (≈ 128 µg/mL)
- lethal effect on THP-1 cells [8]: did not lead to significant lethal effects

SMILES: O=C(Nc1cccc(C(F)(F)F)c1)c1c(O)ccc2ccccc12 [Compound 7b, 2-Hydroxy-N-(3-trifluoromethylphenyl)naphthalene-1-carboxamide]
- log k [1]: 0.9411
- IC50 [2]: 45.6 µM
- MIC [3]: > 748 µM
- MIC [4]: 187 µM (≈ 62 µg/mL)
- MIC [5, 9]: 94 µM (≈ 31.1 µg/mL)
- MIC [6]: 374 µM (≈ 124 µg/mL)
- MIC [7]: > 748 µM
- MIC (M. kansasii DSM 44162): 93.5 µM (≈ 31 µg/mL)
- MIC (M. smegmatis ATCC 700084): > 748 µM
- lethal effect on THP-1 cells [8]: did not lead to significant lethal effects
